Reference: the NIST ThermoML archive (doi:10.1016/j.jct.2013.04.022)

Columns and labels:
[1] = mn = molality of the nth substance listed, in mol/kg; settings: 298.15 K, 85.9 kPa, Liquid; for mass density: Vibrating tube method; for viscosity: Capillary tube (Ostwald / Ubbelohde) method
[2] = 298.15 K, 85.9 kPa, Liquid; for viscosity: Capillary tube (Ostwald / Ubbelohde) method; for mass density: Vibrating tube method
[3] = refractive index (Na D-line) (dimensionless); settings: 298.15 K; 85.9 kPa; Liquid; Standard Abbe refractometry

CCCCn1cc[n+](C)c1.[Br-] [1-butyl-3-methylimidazolium bromide] + CC(=O)N(C)C
[1]
Settings | mass density [kg/m3]
m1 = 0.0527 | 944.36
m1 = 0.1475 | 946.97
m1 = 0.1994 | 950.03

CCCCn1cc[n+](C)c1.[Br-] [1-butyl-3-methylimidazolium bromide] + C[S+](C)[O-]
[1]
Settings | mass density [kg/m3]
m1 = 0.0751 | 1099.03
m1 = 0.0981 | 1099.68
m1 = 0.1923 | 1103.73

Oc1ccccc1C=Nc1ccccc1N=Cc1ccccc1O [2,2'-[1,2-phenylenebis(nitrilomethylidyne)]bis-phenol] + CC(=O)N(C)C
[1]
Settings | mass density [kg/m3] | viscosity [mPa·s]
m1 = 0.0106 | 937.33 | 0.954
m1 = 0.0323 | 938.87 | 0.975
m1 = 0.0497 | 940.11 | 0.992
m1 = 0.0704 | 941.6 | 1.012
m1 = 0.0899 | 942.99 | 1.031
m1 = 0.1092 | 944.36 | 1.049
m1 = 0.129 | 945.78 | 1.069
m1 = 0.1492 | 947.22 | 1.087
m1 = 0.174 | 949.06 | –
m1 = 0.1742 | – | 1.011

Oc1ccccc1C=Nc1ccccc1N=Cc1ccccc1O [2,2'-[1,2-phenylenebis(nitrilomethylidyne)]bis-phenol] + C[S+](C)[O-]
[1]
Settings | mass density [kg/m3] | viscosity [mPa·s]
m1 = 0.0099 | 1095.61 | 1.998
m1 = 0.0307 | 1096.3 | 2.041
m1 = 0.0493 | 1096.92 | 2.073
m1 = 0.07 | 1097.62 | 2.109
m1 = 0.0911 | 1098.35 | 2.151
m1 = 0.1086 | 1098.95 | 2.208
m1 = 0.1311 | 1099.71 | 2.229
m1 = 0.1483 | 1100.31 | 2.289
m1 = 0.1717 | 1101.2 | 2.333

CC(=O)N(C)C [N,N-dimethylethanamide]
Settings | mass density [kg/m3] | refractive index | viscosity [mPa·s]
[2] | 936.57 | – | 0.961
[3] | – | 1.436 | –

C[S+](C)[O-] [dimethyl sulfoxide]
Settings | mass density [kg/m3] | refractive index | viscosity [mPa·s]
[2] | 1095.29 | – | 1.867
[3] | – | 1.4762 | –
